Test: Human HepG2 cell viability assay in 384 well format
Format: toxicity, cell-based
Design: dose 125 nL, time 70.5 hour; concentration not given beside the values
Conditions: HepG2 cells, read-out: Inhibition

Structure (SMILES): COc1ccc(NC(=O)Cn2ccc3c(=O)n(C)ccc32)cc1OC
- cytotoxicity at 70.5 h: -3.38%

Structure (SMILES): COCCNC(=O)Cn1ccc2sc(C)cc2c1=O
- cytotoxicity at 70.5 h: -5.23%

Structure (SMILES): CNC(=O)c1ccccc1-c1ccc(S(C)(=O)=O)cc1
- cytotoxicity at 70.5 h: -4.9%

Structure (SMILES): Cc1ccc(Oc2ncccc2C(=O)N(C)CC2OCCO2)c(C)c1
- cytotoxicity at 70.5 h: -4.31%

Structure (SMILES): COc1ccc(C(=O)Nc2ccccc2C(C)C)c(OC)n1
- cytotoxicity at 70.5 h: 5.28%

Structure (SMILES): O=C(NCCC1=CCCCC1)c1ccc(-n2cccc2)nc1
- cytotoxicity at 70.5 h: -3.84%

Structure (SMILES): CC1CN(c2ncccc2C(=O)N[C@@H]2CCCc3ccccc32)CCN1 (stereo partly drawn)
- cytotoxicity at 70.5 h: -4.37%

Structure (SMILES): CCOCCNC(=O)c1cccnc1N1CCCC1c1ccccn1 (stereo not drawn)
- cytotoxicity at 70.5 h: -8.32%

Structure (SMILES): CCCNc1ccc(C(=O)NCCc2ccc(Cl)cc2)cn1
- cytotoxicity at 70.5 h: -5.63%

Structure (SMILES): O=C(NC[C@@H]1CCCO1)c1cc(Br)cnc1N1CCCCC1
- cytotoxicity at 70.5 h: -1.68%

Structure (SMILES): COc1ccc2c(c1)C(=O)CC1(CCN(Cc3ccc(F)cc3)CC1)O2
- cytotoxicity at 70.5 h: 21.7%

Structure (SMILES): COc1ccc2c(c1)OC1(CCN(Cc3ccccc3C)CC1)CC2=O
- cytotoxicity at 70.5 h: -3.9%

Structure (SMILES): COc1ccc2c(c1)OC1(CCN(Cc3cccc(C)c3)CC1)CC2=O
- cytotoxicity at 70.5 h: -2.19%

Structure (SMILES): O=C(NC[C@@H]1CCCO1)c1cccnc1N1CCCC1c1ccccc1 (stereo partly drawn)
- cytotoxicity at 70.5 h: -5.49%

Structure (SMILES): CN(CCc1ccccc1)C(=O)c1cccnc1OCC(F)(F)F
- cytotoxicity at 70.5 h: 20%

Structure (SMILES): O=C(c1cccnc1SCc1ccccc1)N1CC[C@@H](O)C1
- cytotoxicity at 70.5 h: 29.6%

Structure (SMILES): CCOCCNC(=O)c1cccnc1Sc1cc(OC)ccc1OC
- cytotoxicity at 70.5 h: 15.5%

Structure (SMILES): COc1ccc(OC)c(Sc2ncccc2C(=O)NCC2CC2)c1
- cytotoxicity at 70.5 h: 24.9%

Structure (SMILES): COCCNC(=O)c1cccnc1Sc1cc(OC)ccc1OC
- cytotoxicity at 70.5 h: 11.2%

Structure (SMILES): CCCSc1ncccc1C(=O)NCc1ccc(N(C)C)cc1
- cytotoxicity at 70.5 h: 18.5%

Structure (SMILES): CC1CCN(c2ncc(C#N)c(N)n2)CC1
- cytotoxicity at 70.5 h: -3.5%

Structure (SMILES): Cc1ccc(-c2nnc(CN3CCN(c4ccccn4)CC3)o2)cc1
- cytotoxicity at 70.5 h: 3.67%

Structure (SMILES): CC(=O)N1N=C(c2ccccc2)OC1C(=O)NCCOc1ccccc1 (stereo not drawn)
- cytotoxicity at 70.5 h: -3.08%

Structure (SMILES): CC(=O)N1N=C(Cc2ccccc2)OC1C(=O)NCC(C)C (stereo not drawn)
- cytotoxicity at 70.5 h: -1.89%

Structure (SMILES): CC(C)c1nccc(-c2nccn2CCS(C)(=O)=O)n1
- cytotoxicity at 70.5 h: -16.1%

Structure (SMILES): CC(C)C[C@H](NC(=O)c1cc(-c2cccn2C)n[nH]1)C(N)=O
- cytotoxicity at 70.5 h: -0.791%

Structure (SMILES): COCCNc1nc2c(c(NCCc3cccs3)n1)CCNCC2
- cytotoxicity at 70.5 h: -2.67%

Structure (SMILES): Fc1ccccc1CC1CCN(Cc2nccs2)CC1
- cytotoxicity at 70.5 h: -3.29%

Structure (SMILES): C[C@@H]1CN(C(=O)C2(Cn3cccn3)CC2)CC[C@@]1(O)C1CCOCC1
- cytotoxicity at 70.5 h: -0.0584%

Structure (SMILES): CCc1cnc(N2CCCC(CCC(N)=O)C2)nc1 (stereo not drawn)
- cytotoxicity at 70.5 h: 17.3%

Structure (SMILES): O[C@@H]1CN(c2noc(C3CC3)n2)CC[C@H]1c1ccc2ccccc2c1
- cytotoxicity at 70.5 h: 17.6%

Structure (SMILES): CN1CCc2[nH]cnc2C12CCN(Cc1ccc3nsnc3c1)CC2
- cytotoxicity at 70.5 h: 0.284%

Structure (SMILES): CNc1nc(C)c(C(=O)N2C[C@@H](C(=O)O)[C@H](C3CC3)C2)s1
- cytotoxicity at 70.5 h: -6.65%

Structure (SMILES): CN1CCC(C2CCN(Cc3cccc(-n4cccn4)c3)CC2)C1 (stereo not drawn)
- cytotoxicity at 70.5 h: 2.02%

Structure (SMILES): CC(c1ccc(C(=O)NCCc2nc(N)cc(O)n2)o1)N1CCCCC1 (stereo not drawn)
- cytotoxicity at 70.5 h: -3.9%

Structure (SMILES): CN(Cc1cc2n(n1)CCNC2)Cc1cc(-c2ccccn2)no1
- cytotoxicity at 70.5 h: -5.4%

Structure (SMILES): O=C(Cc1ccc(F)cc1Cl)N1C[C@@H](CN2CCC(O)CC2)[C@@H](CO)C1
- cytotoxicity at 70.5 h: -3.43%

Structure (SMILES): COCc1nc(Cn2c(C)cc(C(F)(F)F)cc2=O)no1
- cytotoxicity at 70.5 h: 23.9%

Structure (SMILES): Cc1nn(C)c(C)c1-c1ccnc(N(C)Cc2noc(C(C)C)n2)n1
- cytotoxicity at 70.5 h: 7.17%

Structure (SMILES): CCC(C)N(Cc1cccnc1)Cc1ccccc1Cn1cccn1 (stereo not drawn)
- cytotoxicity at 70.5 h: -9.31%

Structure (SMILES): CC(C)Cc1cc(C(=O)NC(C)(CO)CO)n(C)n1
- cytotoxicity at 70.5 h: -16.8%

Structure (SMILES): Cc1nnc(CN(C)Cc2ccc(C(=O)Nc3sccc3C#N)cc2)o1
- cytotoxicity at 70.5 h: 0.967%

Structure (SMILES): CC(=O)NCCNc1cc(C)nc2cc(C)nn12
- cytotoxicity at 70.5 h: 0.136%

Structure (SMILES): Cc1nc(CN2CC(Cc3ccccc3)CC2=O)no1 (stereo not drawn)
- cytotoxicity at 70.5 h: -17.4%

Structure (SMILES): CCn1cnnc1C1CCN(C(=O)c2ccccc2F)CC1
- cytotoxicity at 70.5 h: -7.26%

Structure (SMILES): CC(C)c1nccn1C1CCCN(C(=O)c2ccc3nncn3c2)C1 (stereo not drawn)
- cytotoxicity at 70.5 h: 13%

Structure (SMILES): CCn1cnnc1C1CCN(C(=O)c2cc(F)ccc2OC)CC1
- cytotoxicity at 70.5 h: -10.6%

Structure (SMILES): CCn1cnnc1C1CCN(C(=O)c2cc(C)n(CC)c2C)CC1
- cytotoxicity at 70.5 h: -5.03%

Structure (SMILES): Cc1nc(C)n(CC2CCCCN2Cc2nc3ccccc3o2)n1 (stereo not drawn)
- cytotoxicity at 70.5 h: 17.7%

Structure (SMILES): Cc1nc(C)n(CC2CN(CC(=O)NC3CCCC3)CCO2)n1 (stereo not drawn)
- cytotoxicity at 70.5 h: -7.31%

Structure (SMILES): Cc1cnn(C2CN(Cc3nc(-c4ccsc4)no3)C2)c1
- cytotoxicity at 70.5 h: -8.74%

Structure (SMILES): CCc1nc(CNc2ccc(C(=O)N3CCSCC3)cc2C)no1
- cytotoxicity at 70.5 h: -6.1%

Structure (SMILES): CC(C)Cn1nnnc1SC(C(=O)NCc1cccnc1)C(C)C (stereo not drawn)
- cytotoxicity at 70.5 h: -4.78%

Structure (SMILES): Cc1cc(CN(C)C2CCCN(c3cccnn3)C2)no1 (stereo not drawn)
- cytotoxicity at 70.5 h: -9.99%

Structure (SMILES): Cc1nc(C)n(CC2CCCCN2Cc2cnc(C)s2)n1 (stereo not drawn)
- cytotoxicity at 70.5 h: -7.75%

Structure (SMILES): Cc1cc(C(=O)N2CCCC(C)C2)ccc1NCc1nc(C(C)C)no1 (stereo not drawn)
- cytotoxicity at 70.5 h: -9.64%

Structure (SMILES): CCN(C(C)=O)c1nc(CN2CCCCC2Cn2cncn2)cs1 (stereo not drawn)
- cytotoxicity at 70.5 h: -3.03%

Structure (SMILES): Cc1cc(C)n(CC2CCCN2Cc2ncc(C(C)(C)C)o2)n1 (stereo not drawn)
- cytotoxicity at 70.5 h: -5.22%

Source: ChEMBL document CHEMBL3507680, “University of Dundee, Gates Library screen for HepG2 cell viability”
